A word on the IC50: it is the concentration needed to halve the response being measured. One may read the Emax as the maximal effect, on the per cent scale that the assay sets.

Here are results for 1 compound from PMC6315694, “Synthesis of Pseudellone Analogs and Characterization as Novel T-type Calcium Channel Blockers” (Marine Drugs, 2018).

In experiment [1] the test system is L-type calcium channel (CaV1). The experiment is described as follows: HVA calcium channel FLIPR assay, L-type (SH-SY5Y cells). The class given is cell-based, human. The settings on record: 1 µM CVID present, N = 3, mean ± SEM, read-out: IC50 CaV1 (HVA CaVs). On the procedure:
(§1) The human embryonic kidney 293 (HEK 293) cell lines (from Emmanuel Bourinet, Montpellier, France) stably expressing CaV3.2 or CaV3.3 were cultured under 5% carbon dioxide at 37 °C in Dulbecco’s Modified Eagle Medium (DMEM) Glutamax (Gibco, Life Technologies, Carlsbad, CA, USA) supplemented with 10% (v/v) fetal bovine serum (FBS), 100 U/mL penicillin, 100 μg/mL streptomycin (Gibco, Life Technologies), and 750 μg/mL geneticin (G418) (Gibco, Life Technologies). The Chinese Hamster Ovary (CHO) cell lines (Emmanuel Bourinet, Montpellier, France) expressing CaV3.1 were cultured under 5% carbon dioxide at 37 °C in Alpha Minimum Essential Media (MEM) Glutamax (Gibco, Life Technologies), supplemented with 10% (v/v) fetal bovine serum (FBS) and 300 μg/mL geneticin (G418) (Gibco, Life Technologies). The human neuroblastoma SH-SY5 Y cells (Victor Diaz, Goettingen, Germany) were cultured under 5% carbon dioxide at 37 °C in RPMI 1640 antibiotic-free medium (Invitrogen, Carlsbad, CA, USA), supplemented with 15% FBS and 2 mM GlutaMAX™ (Invitrogen). D-PBS (Gibco, Life Technologies) was used to wash the cells, and 0.25% Trypsin-EDTA (Gibco, Life Technologies) was used to detach cells from the flask surface. They were split in a ratio of 1:5 (ideally 1000 cells/cm^2) when they reached 70%–80% confluence (every 2–3 days). Transiently transfected CaV3.1HEK293 T cells were used in FLIPR Assays. HEK 293 T cells were cultured under 5% carbon dioxide at 37 °C in DMEM supplemented with 10% (v/v) FBS. D-PBS was used to wash the cells, and 0.25% Trypsin-EDTA was used to detach cells from the flask surface. The cells were split and seeded at 6 million cells per T175 flask, to reach 70%–80% confluence after 24 h. The next day, 12 μg DNA of human CaV3.1 was incubated in 900 μL serum-free DMEM with 36 μL FuGENE HD transfection reagent (Promega Corporation, Madison, WI, US) (1:3 DNA/Fugene ratio) for 20 min, and then the mixture was added into the cell flask slowly, drop by drop. After the transfection, the cells were cultured under 5% carbon dioxide at 37 °C for 24 h and then moved to a 28 °C incubator.
SH-SY5Y cells were seeded into 384-well black wall clear bottom plates at a density of 15,000 cells per well, resulting in 90%–95% confluence after 24 h. […] The fluorescence readings were recorded and converted as described previously, and agonist containing 90 mM KCl + 5 mM CaCl2 was used in the second addition.
(§2) Data were plotted and analyzed using GraphPad Prism v7.0 (GraphPad Software Inc., San Diego, CA, USA). […]

Experiment [2] concerns the target T1, recombinant hCaV3.1 channels (Homo sapiens, UniProt O43497).
T1 construct: host or cells: probably the CHO line expressing CaV3.1 (inferred: the transient HEK293T cells are assigned to FLIPR)
Briefly: Whole-cell patch-clamp QPatch 16 X, CaV3.1. The class given is cell-based. On the procedure:
as §1, with “After the transfection, the cells were cultured under 5% carbon dioxide at 37 °C for 24 h and then moved to a 28 °C incubator.” left out
as §2

Experiment [3] addresses recombinant hCaV3.2 channels (Homo sapiens, UniProt O95180). The experiment is described as follows: Whole-cell patch-clamp QPatch 16 X, CaV3.2. The class given is cell-based. On the procedure: as §1
Whole-cell patch-clamp experiments were performed on an automated electrophysiology platform QPatch 16 X (Sophion Bioscience A/S, Ballerup, Denmark) in single-hole configuration using 16-channel planar patch chip QPlates (Sophion Bioscience A/S). The extracellular recording solution contained, in mM: TEACl 157, MgCl2 0.5, CaCl2 5, and HEPES 10; pH 7.4 adjusted with TEAOH; and osmolarity 320 mOsm. The intracellular pipette solution contained, in mM: CsF 140, EGTA 1, HEPES 10, and NaCl 10; pH 7.2 adjusted with CsOH; and osmolarity 325 mOsm. […]
as §2
(In patch-clamp work, channel activity is measured electrically.)

recombinant hCaV3.2 channels, sequence (O95180 whole entry): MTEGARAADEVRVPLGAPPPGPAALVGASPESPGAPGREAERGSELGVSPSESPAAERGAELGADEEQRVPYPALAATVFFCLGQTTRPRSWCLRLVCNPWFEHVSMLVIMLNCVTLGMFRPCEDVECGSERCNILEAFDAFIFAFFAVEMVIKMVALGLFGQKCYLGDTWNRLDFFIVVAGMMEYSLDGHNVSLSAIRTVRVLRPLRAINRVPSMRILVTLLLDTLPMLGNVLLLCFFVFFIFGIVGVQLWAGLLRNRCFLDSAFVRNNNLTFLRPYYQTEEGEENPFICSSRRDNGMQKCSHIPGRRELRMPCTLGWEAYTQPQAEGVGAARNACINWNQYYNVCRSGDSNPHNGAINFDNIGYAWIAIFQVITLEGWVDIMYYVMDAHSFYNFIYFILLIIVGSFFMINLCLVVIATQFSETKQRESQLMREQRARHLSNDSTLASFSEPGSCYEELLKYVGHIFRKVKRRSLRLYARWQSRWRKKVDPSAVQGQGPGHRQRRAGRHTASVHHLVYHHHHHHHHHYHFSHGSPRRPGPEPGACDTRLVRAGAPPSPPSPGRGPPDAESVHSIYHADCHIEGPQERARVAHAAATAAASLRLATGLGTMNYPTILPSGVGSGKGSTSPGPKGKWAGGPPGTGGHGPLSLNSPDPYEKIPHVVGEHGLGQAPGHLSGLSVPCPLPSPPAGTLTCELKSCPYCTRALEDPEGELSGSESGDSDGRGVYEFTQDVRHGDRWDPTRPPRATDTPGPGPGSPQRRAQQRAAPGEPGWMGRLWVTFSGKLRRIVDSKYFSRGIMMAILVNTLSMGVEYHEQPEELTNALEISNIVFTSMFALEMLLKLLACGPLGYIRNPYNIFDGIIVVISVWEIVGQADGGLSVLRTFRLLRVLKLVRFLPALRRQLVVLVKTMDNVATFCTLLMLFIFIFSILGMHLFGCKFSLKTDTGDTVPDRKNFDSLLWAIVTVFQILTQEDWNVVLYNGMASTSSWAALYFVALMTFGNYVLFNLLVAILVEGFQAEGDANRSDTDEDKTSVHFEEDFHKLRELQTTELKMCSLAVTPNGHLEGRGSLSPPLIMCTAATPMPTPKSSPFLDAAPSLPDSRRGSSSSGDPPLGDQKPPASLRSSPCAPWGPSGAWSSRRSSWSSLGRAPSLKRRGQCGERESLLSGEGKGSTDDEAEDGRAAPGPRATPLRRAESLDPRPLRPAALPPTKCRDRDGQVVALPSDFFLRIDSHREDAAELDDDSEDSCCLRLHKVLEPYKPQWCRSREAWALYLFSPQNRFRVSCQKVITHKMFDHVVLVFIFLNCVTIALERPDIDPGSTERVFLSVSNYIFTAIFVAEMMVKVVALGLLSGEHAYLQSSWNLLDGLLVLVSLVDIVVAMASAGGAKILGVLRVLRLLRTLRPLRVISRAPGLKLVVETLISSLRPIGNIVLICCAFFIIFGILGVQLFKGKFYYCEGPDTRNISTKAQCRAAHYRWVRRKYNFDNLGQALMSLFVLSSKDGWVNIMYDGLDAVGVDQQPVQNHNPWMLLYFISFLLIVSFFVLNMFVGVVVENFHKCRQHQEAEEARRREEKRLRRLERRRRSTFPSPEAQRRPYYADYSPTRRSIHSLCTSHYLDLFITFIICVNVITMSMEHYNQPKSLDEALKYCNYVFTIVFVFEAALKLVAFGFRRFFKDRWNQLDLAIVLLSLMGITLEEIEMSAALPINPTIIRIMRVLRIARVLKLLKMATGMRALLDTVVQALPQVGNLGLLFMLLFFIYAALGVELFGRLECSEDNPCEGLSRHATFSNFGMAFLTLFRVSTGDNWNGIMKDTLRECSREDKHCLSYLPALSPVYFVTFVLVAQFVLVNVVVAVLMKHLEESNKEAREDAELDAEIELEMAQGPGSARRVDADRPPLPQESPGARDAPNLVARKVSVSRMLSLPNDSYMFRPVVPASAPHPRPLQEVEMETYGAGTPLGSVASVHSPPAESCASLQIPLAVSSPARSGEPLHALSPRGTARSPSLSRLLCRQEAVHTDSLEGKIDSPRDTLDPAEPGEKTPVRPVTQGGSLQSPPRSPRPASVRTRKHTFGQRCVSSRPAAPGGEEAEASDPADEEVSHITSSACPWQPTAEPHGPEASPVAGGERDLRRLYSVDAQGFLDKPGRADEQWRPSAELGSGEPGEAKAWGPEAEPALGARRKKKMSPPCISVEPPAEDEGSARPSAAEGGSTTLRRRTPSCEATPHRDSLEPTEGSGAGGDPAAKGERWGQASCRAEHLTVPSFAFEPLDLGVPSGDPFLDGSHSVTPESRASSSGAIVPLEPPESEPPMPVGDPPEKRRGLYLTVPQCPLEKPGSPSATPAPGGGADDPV
T1 sequence (O43497 whole entry): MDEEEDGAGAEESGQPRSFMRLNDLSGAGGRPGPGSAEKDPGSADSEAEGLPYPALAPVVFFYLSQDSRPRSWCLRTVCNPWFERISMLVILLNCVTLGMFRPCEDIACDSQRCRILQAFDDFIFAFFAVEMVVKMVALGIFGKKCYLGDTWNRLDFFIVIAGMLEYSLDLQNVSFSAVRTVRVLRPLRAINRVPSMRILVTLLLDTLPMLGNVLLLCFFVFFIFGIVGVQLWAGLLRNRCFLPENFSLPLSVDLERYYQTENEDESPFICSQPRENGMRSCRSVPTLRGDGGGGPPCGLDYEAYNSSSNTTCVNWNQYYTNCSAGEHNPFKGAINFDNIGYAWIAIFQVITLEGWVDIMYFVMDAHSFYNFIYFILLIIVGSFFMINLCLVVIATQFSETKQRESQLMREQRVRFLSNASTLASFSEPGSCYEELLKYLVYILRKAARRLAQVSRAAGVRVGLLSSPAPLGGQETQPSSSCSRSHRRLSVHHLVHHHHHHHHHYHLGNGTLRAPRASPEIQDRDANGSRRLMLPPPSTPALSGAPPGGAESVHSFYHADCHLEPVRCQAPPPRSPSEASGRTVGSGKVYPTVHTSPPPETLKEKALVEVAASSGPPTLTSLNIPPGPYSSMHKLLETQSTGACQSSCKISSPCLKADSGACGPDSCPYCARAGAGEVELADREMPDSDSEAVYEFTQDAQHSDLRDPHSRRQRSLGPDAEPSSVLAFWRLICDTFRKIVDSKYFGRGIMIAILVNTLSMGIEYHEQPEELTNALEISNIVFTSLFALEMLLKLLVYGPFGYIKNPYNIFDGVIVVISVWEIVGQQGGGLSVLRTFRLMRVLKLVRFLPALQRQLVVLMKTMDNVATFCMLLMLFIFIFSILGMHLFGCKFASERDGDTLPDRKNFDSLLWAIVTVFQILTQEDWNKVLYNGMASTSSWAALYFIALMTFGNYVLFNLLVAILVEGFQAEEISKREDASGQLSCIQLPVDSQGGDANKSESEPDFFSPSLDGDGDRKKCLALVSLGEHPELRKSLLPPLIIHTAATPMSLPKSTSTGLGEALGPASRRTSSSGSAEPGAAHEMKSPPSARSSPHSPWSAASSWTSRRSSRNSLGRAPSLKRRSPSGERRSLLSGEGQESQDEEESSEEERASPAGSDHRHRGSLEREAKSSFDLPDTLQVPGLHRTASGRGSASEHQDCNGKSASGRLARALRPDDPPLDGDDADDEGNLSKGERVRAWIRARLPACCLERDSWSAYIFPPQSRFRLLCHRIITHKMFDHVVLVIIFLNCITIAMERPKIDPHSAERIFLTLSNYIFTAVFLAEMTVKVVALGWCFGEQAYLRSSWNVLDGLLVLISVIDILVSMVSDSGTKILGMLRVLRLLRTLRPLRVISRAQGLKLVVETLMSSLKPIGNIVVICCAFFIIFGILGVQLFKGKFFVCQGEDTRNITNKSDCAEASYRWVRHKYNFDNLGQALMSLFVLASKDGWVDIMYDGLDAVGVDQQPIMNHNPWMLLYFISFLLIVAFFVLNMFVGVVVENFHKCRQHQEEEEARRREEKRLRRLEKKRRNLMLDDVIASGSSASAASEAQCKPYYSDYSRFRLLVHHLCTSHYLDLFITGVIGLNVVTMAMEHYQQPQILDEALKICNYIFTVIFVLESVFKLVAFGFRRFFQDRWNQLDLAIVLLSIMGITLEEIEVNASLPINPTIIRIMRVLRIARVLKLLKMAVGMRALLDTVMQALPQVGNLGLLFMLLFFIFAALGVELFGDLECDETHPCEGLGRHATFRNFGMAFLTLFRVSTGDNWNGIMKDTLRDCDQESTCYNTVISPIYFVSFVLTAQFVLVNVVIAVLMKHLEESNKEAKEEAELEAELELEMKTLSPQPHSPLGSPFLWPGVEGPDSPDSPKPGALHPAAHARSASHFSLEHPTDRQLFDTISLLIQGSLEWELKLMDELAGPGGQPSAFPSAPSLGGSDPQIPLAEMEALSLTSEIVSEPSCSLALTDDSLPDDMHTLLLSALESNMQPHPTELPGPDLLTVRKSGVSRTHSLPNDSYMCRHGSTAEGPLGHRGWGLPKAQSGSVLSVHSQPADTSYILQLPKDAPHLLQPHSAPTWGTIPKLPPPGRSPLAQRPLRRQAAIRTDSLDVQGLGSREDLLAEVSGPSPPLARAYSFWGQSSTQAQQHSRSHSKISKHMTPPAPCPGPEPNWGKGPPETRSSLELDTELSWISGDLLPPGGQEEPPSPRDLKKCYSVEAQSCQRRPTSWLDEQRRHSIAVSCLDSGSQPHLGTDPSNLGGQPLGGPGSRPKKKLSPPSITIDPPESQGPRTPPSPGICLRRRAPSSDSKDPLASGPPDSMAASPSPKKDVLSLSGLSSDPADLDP

For the compound `COC(=O)[C@H](Cc1c[nH]c2ccccc12)NC(=O)C(C)(c1c[nH]c2ccccc12)c1c[nH]c2ccccc12` [Compound 3, Methyl (2,2-di(1H-indol-3-yl)propanoyl)-L-tryptophanate], the IC50 in experiment [1] is 39.8 ± 3.98 µM; in experiment [3] (QPatch, 200 ms steps to Vmax (−20 mV) from holding −90 mV, n = 4–5, mean ± SEM, read-out: IC50 CaV3.2 whole-cell current), 8.82 ± 2.3 µM. Moreover, the “Potency for CaV3.1-activated currents relative to CaV3.1 window currents” value in experiment [2] (QPatch versus FLIPR, better for activated currents) is on record as above 7 fold. Moreover, the Emax is 82.8 ± 2.55% in experiment [2] (QPatch whole-cell, partial block, read-out: Emax value, block of CaV3.1 current) and at least 95% in experiment [3] (QPatch whole-cell, full inhibition, read-out: Emax value, inhibition of CaV3.2 whole-cell current). Besides, the “Voltage-dependence of steady-state inactivation of CaV3.1, in words” value in experiment [2] (QPatch, in the presence of compound) is “not significantly shifted”. Further, the “Half-maximal steady-state inactivation V50 of CaV3.2 in the presence of compound” value in experiment [3] (0.6 µM compound, control V50 −65.40 ± 1.91 mV (n = 9), n = 4–5) was −76.36 ± 1.56 mV. Moreover, in experiment [3] (steady-state inactivation, 0.6 µM compound, versus control), the “Shift of half-maximal inactivation V50 of CaV3.2 to hyperpolarized potentials” value was found to be 11 mV.
